Data: patent US20260356860A1, “2-SUBSTITUTED 3,4A,5,7,8,8A-HEXAHYDRO-4H-THIOPYRANO[4,3-DJPYRIMIDIN-4-ONES FOR WOUND TREATMENT” (priority 2022, published 2026)

Tests used:
Tankyrase 2 (TNKS2) = molecular target: T1, Tankyrase 2 (TNKS2) (Homo sapiens, UniProt Q9H2K2); assay: TNK2 Binding Assay (Tankyrase 2 ribosylation, chemiluminescence); assay type: biochemical
T1 sequence (Q9H2K2 1-1166): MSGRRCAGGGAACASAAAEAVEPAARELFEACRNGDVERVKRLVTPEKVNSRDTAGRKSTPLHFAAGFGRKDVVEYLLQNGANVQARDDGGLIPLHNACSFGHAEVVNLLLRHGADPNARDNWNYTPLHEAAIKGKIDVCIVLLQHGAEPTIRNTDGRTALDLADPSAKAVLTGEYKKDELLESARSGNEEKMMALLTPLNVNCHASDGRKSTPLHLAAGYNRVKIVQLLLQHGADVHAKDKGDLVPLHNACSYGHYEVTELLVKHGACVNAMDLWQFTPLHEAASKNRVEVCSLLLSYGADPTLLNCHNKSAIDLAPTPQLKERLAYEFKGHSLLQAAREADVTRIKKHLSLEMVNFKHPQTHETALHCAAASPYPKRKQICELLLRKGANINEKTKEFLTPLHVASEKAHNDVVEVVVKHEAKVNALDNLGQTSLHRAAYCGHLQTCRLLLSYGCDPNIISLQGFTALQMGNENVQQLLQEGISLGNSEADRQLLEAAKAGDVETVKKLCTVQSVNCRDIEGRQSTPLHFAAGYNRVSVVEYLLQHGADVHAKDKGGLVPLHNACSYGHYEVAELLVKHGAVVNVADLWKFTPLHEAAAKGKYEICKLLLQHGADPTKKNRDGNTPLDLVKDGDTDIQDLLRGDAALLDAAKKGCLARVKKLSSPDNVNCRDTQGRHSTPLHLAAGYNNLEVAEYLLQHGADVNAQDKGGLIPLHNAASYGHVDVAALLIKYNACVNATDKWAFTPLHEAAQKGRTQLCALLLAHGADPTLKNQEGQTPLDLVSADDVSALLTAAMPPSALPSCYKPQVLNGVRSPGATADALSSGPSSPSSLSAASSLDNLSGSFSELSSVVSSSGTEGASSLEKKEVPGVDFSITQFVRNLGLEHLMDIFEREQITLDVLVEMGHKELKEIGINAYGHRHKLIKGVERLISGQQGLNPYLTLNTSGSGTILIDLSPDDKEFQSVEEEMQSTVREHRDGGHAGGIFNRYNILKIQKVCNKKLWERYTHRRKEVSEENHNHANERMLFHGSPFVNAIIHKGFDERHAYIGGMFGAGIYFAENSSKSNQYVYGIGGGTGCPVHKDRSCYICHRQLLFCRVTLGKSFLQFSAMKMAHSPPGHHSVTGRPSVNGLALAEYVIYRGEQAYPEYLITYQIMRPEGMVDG
Method: Tankyrase 2 assay (n=3) was performed with the following steps: step 1, coating a 96-well plate with 50 μL/well of histone solution; step 2, conducting ribosylation reaction; and step 3, detection.
Step 1: Coating a 96-Well Plate with 50 μL/Well of Histone Solution.
A 5× histone mixture was diluted 1:5 with PBS to make a 1× histone in PBS mixture. 50 μL of the histone mixture was added to each well and incubated at 4° C. overnight. The plate was washed three times using 200 μL PBST buffer (1×PBS containing 0.05% Tween*20 (polysorbate 20) per well. The plate was tapped onto a clean paper towel to remove the liquid. The wells were blocked by adding 200 μL of blocking buffer 3 to each well. The plate was incubated at room temperature for at least 90 minutes. The plate was washed three times with 200 μL PBST buffer. The plate was tapped onto a clean paper towel to remove the liquid.
A fresh solution of 10 mM DTT in water was prepared.
A master mix was prepared and delivered to each well (25 μL/well). Master mix delivered to each well: (2.5 μL of 10×PARP assay buffer (purchased from BPS Bioscience)+2.5 μL of PARP substrate mixture 2+17.5 μL of water+2.5 μL of 10 mM fresh DTT). The concentration of DTT in the master mix was 1 mM. 25 μL of master mix was added to each well.
1×PARP buffer with DTT was prepared. 10×PARP assay buffer was diluted to 1×PARP assay buffer containing DTT by adding 1 volume of 10×PARP assay buffer+1 volume of 10 mM DTT+8 volumes of water. The concentration of DTT in the 1×PARP assay buffer was 1 mM.
5 μL of a test inhibitor was added to each well labeled as “Test Inhibitor.” For the “Positive Control,” the PARP inhibitor, XAV939, was used. For the negative control, no inhibitor is added to the assay mix.
The Tankyrase 2 (TNKS2) enzyme on ice was thawed. The tube containing the enzyme was spun briefly to recover the full content of the tube. The amount of TNKS2 enzyme required for the assay was calculated and the enzyme was diluted to 0.5 ng/μL with 1×PARP assay buffer with DTT. 16) The final concentration of TNKS2 enzyme in the assay was 2 nM. The reaction was initiated by adding 10 μL of diluted TNKS2 enzyme to each well designated “Positive Control” and “Test Inhibitor.” To each well designated as “Blank,” 10 μL of 1×PARP assay buffer with DTT was added. The plate was incubated at room temperature for 1 hour. The plate was washed three times with 100 μL of PBST buffer and the plate was tapped onto a clean paper towel.
1) Streptavidin-HRP was diluted 1:50 in Blocking buffer (purchased from BPS Bioscience) 3.50 μL of diluted Streptavidin-RP was added to each well and incubated for 30 minutes at room temperature. The plate was washed three times with 100 μL of PBST buffer and tapped onto a clean paper towel. Just before use, 1 volume of ELISA ECL Substrate A and 1 volume of ELISA ECL Substrate B were mixed on ice; and 100 μL was added to each well. Immediately, the plate was read in a luminometer or microtiter-plate reader capable of reading chemiluminescence. The “Blank” value was subtracted from all other values.

[1] = test system: HEK293 SuperTOPFlash reporter cells, Wnt promoter; assay: HEK CELL Wnt Assay (luciferase reporter); assay type: cell-based; settings: for IC50: serial dilutions, with or without 50 ng/mL Wnt3a, 18 h
Method: In order to determine the effect of the compounds of Formula (I) on Wnt inhibition, an in vitro assay using HEK293 SuperTOPFlash reporter cells, with the Wnt promoter driving a luciferase reporter gene, were utilized. 40,000 HEK293 SuperTOPFlash reporter cells were seeded, per well, in a 48 well plate for 24 hours, prior to administration of serial dilutions of the compound of Formula (I) to individual wells. Serial dilutions ranging from […] to 1 nM of the compound of Formula (I) were added with or without 50 ng/mL Wnt3a (Time Biosciences) and allowed to incubate with the reporter cells for 18 hours. Reporter cells with no treatment were used as negative control.

Compound | IC50 (Tankyrase 2 (TNKS2)) [nM] | solubility remark in HEK CELL Wnt assay [1] | IC50 [1] [nM]
O=c1[nH]c(-c2ccc3c(c2)COB3O)nc2c1CSCC2 [Compound 3, 2-(1-hydroxy-1,3-dihydrobenzo[c][1,2]oxaborol-5-yl)-7,8-dihydro-3H-thiopyrano [4,3-d]pyrimidin-4 (5H)-one] | 28 | – | 7500
O=c1[nH]c(/C=C/c2ccc(C(F)(F)F)cc2)nc2c1CSCC2 [Compound 6, (E)-2-(4-(trifluoromethyl)styryl)-3,5,7,8-tetrahydro-4H-thiopyrano[4,3-d]pyrimidin-4-one] | 2500 | – | 2000
O=c1[nH]c(-c2ccc(-c3cnc(OCCO)nc3)cc2)nc2c1CSCC2 [Compound 11, 2-(4-(2-(2-hydroxyethoxy)pyrimidin-5-yl)phenyl)-3,5,7,8-tetrahydro-4H-thiopyrano[4,3-d]pyrimidin-4-one] | 21 | solubility issue | 100
COCCOC(C)(C)c1c(F)cc(-c2nc3c(c(=O)[nH]2)CSCC3)cc1F [Compound 16, 2-(3,5-difluoro-4-(2-(2-methoxyethoxy)propan-2-yl)phenyl)-3,5,7,8-tetrahydro-4H-thiopyrano[4,3-d]pyrimidin-4-one] | 50 | – | 400
O=c1[nH]c(-c2ccc(-c3ccc(Br)nc3)nc2)nc2c1CSCC2 [Compound 19, 2-(6′-bromo-[2,3′-bipyridin]-5-yl)-3,5,7,8-tetrahydro-4H-thiopyrano[4,3-d]pyrimidin-4-one] | 40 | – | 2500
O=c1[nH]c(-c2c(F)cc(-c3ccc(B(O)O)cc3)cc2F)nc2c1CSCC2 [Compound 25, (3′,5′-difluoro-4′-(4-oxo-3,5,7,8-tetrahydro-4H-thiopyrano[4,3-d]pyrimidin-2-yl)-[1,1′-biphenyl]-4-yl)boronic acid] | 63 | – | 2500
O=c1[nH]c(-c2ccc(-c3ccc(B(O)O)cc3)cc2O)nc2c1CSCC2 [Compound 26, (3′-hydroxy-4′-(4-oxo-3,5,7,8-tetrahydro-4H-thiopyrano[4,3-d]pyrimidin-2-yl)-[1,1′-biphenyl]-4-yl)boronic acid] | 24 | – | 652

The next molecules have a lower IC50 (Tankyrase 2 (TNKS2)) than those just listed; values first:

IC50 (Tankyrase 2 (TNKS2)) [nM] | solubility remark in HEK CELL Wnt assay [1] | Compound | IC50 [1] [nM]
13 | – | O=c1[nH]c(-c2ccc(-c3nc4c(c(=O)[nH]3)CSCC4)cc2)no1 [Compound 4, 3-(4-(4-oxo-3,5,7,8-tetrahydro-4H-thiopyrano[4,3-d]pyrimidin-2-yl)phenyl)-1,2,4-oxadiazol-5 (4H)-one] | > 10000
12 | – | O=c1[nH]c(-c2cc(F)c(-c3ccc(Br)nc3)c(F)c2)nc2c1CSCC2 [Compound 21, 2-(4-(6-bromopyridin-3-yl)-3,5-difluorophenyl)-3,5,7,8-tetrahydro-4H-thiopyrano[4,3-d]pyrimidin-4-one] | 2000
11 | – | O=c1[nH]c(-c2cc(F)c(B(O)O)c(F)c2)nc2c1CSCC2 [Compound 14, (2,6-difluoro-4-(4-oxo-3,5,7,8-tetrahydro-4H-thiopyrano[4,3-d]pyrimidin-2-yl)phenyl)boronic acid] | 8000
6.5 | – | CC(C)(OCCO)c1ccc(-c2ccc(-c3nc4c(c(=O)[nH]3)CSCC4)cc2)cc1 [Compound 12, 2-(4′-(2-(2-hydroxyethoxy)propan-2-yl)-[1,1′-biphenyl]-4-yl)-3,5,7,8-tetrahydro-4H-thiopyrano[4,3-d]pyrimidin-4-one] | 3
4 | – | O=c1[nH]c(-c2ccc(-c3ccc(B(O)O)cn3)cc2)nc2c1CSCC2 [Compound 22, (6-(4-(4-oxo-3,5,7,8-tetrahydro-4H-thiopyrano[4,3-d]pyrimidin-2-yl)phenyl)pyridin-3-yl)boronic acid] | 250
3 | – | COCCOC(C)(C)c1ccc(-c2nc3c(c(=O)[nH]2)CSCC3)cc1 [Compound 17, 2-(4-(2-(2-methoxyethoxy)propan-2-yl)phenyl)-3,5,7,8-tetrahydro-4H-thiopyrano[4,3-d]pyrimidin-4-one] | 60
3 | – | O=c1[nH]c(-c2ccc(-c3ncc(B(O)O)cn3)cc2)nc2c1CSCC2 [Compound 24, (2-(4-(4-oxo-3,5,7,8-tetrahydro-4H-thiopyrano[4,3-d]pyrimidin-2-yl)phenyl)pyrimidin-5-yl)boronic acid] | 500
2 | – | O=c1[nH]c(-c2ccc(-c3ccc(B(O)O)c(O)c3)cc2)nc2c1CSCC2 [Compound 27, (3-hydroxy-4′-(4-oxo-3,5,7,8-tetrahydro-4H-thiopyrano[4,3-d]pyrimidin-2-yl)-[1,1′-biphenyl]-4-yl)boronic acid] | 36
2 | – | O=c1[nH]c(-c2ccc(-c3ccc(B(O)O)cc3O)cc2)nc2c1CSCC2 [Compound 28, (2-hydroxy-4′-(4-oxo-3,5,7,8-tetrahydro-4H-thiopyrano[4,3-d]pyrimidin-2-yl)-[1,1′-biphenyl]-4-yl)boronic acid] | 2
1 | – | COC(=O)NCCOC(C)(C)c1ccc(-c2ccc(-c3nc4c(c(=O)[nH]3)CSCC4)cc2)cc1 [Compound 29, methyl (2-((2-(4′-(4-oxo-3,5,7,8-tetrahydro-4H-thiopyrano[4,3-d]pyrimidin-2-yl)-[1,1′-biphenyl]-4-yl)propan-2-yl)oxy)ethyl)carbamate] | 100
